Test results from patent US4476319A, “P-Chlorophenoxyacetic acid derivative, its method of preparation, the pharmaceutical compositions containing it and its use in medicine” (Sociedad Espanola de Especialidades Farmaco-Terapeuticas …, priority 1981, dated 1984).

Assays:
[1] = system: loss of memory induced by electric shock; assay: Nootropa activity: protection from memory loss induced by electric shock, aquatic labyrinth (number of errors); type: in vivo, rat; conditions: rats
Description: Tests were carried out on rats using the technique estimating the loss of memory induced by electric shock, the loss of memory being determined as related to the number of errors made in seeking the outlet from an acquatic labyrinth (Giurgea C. J. Pharmacol (Paris) 3, 1, 17, *1972).

[2] = system: learning in the acquatic labyrinth; assay: Learning activity: learning in the acquatic labyrinth; type: in vivo
[3] = system: learning in the conditioning cage; assay: Learning activity: conditioning cage (electric shock avoidance); type: in vivo
[4] = system: desperation behavior in mice; assay: Anti-depressant activity: desperation behavior in mice (Porsalt); type: in vivo, mouse
Description: This activity was evaluated by the method of examining the desperation behavior in mice (Porsalt, T. D., Arch. Int Pharmacodyn 229, 327 (1977).
A state of despair was induced by placing the animal in a cylinder containing water, and from which escape was impossible, the animal then finding itself obliged to treadmill continually. After a period of vigorous activity, the mouse assumes a characteristic immobile posture, which behavior is capable of reduction by the use of various types of pharmaceutical anti-depressants.

[5] = system: cataleptic condition in rats, induced by fluphenazine; assay: Anti-cataleptic activity: Morpurgo test, antagonism of fluphenazine-induced catalepsy; type: in vivo, rat
Text: This activity was the subject of Morpurgo tests (Arch. Int. Pharmacodyn, 137, 84 (1962), based on antagonizing the cataleptic condition in rats, induced by fluphenazine.

[6] = Toxicity, Irwin or "screening" multi-dimensional test; type: in vivo
LD50 in the rat = conditions: in vivo
LD50 in the mouse = conditions: in vivo
[7] = statement covers acquatic labyrinth and conditioning cage tests
[8] = ip, i.p. (intraperitoneal route)

SMILES: O=C(COc1ccc(Cl)cc1)OCCNC12CC3CC(CC(C3)C1)C2 [Compound I, p-chlorophenoxyacetate of 1-aminoadamantine-2-ethanol]
- Nootropa activity, in words ([1]; loss of memory by electric shock): notably active
- Protection from memory loss due to electric shock (number of errors) ([1]; number of errors in acquatic labyrinth, p < 0.01): 46.5%
- Decrease with respect to the control in the errors made in the acquatic labrinth (5th day) ([2]; 5th day, vs control, p < 0.01): 51.6%
- Learning facility in the acquatic labyrinth, in words [2, 7]: increased learning facility
- Learning facility in the conditioning cage, in words [3, 7]: increased learning facility
- Increase with respect to the control in the conditioning cage (learning facility) ([3]; vs control, p < 0.001): 14.4%
- Anti-depressant effects, in words ([4]; desperation behavior): moderate anti-depressant effects
- Protection with respect to the control (anti-depressant activity) ([4]; vs control, p < 0.001): 45.9%
- Reduction of the cataleptic activity of fluphenazine, in words [5]: slightly reduced the cataleptic activity of the fluphenazine
- Toxicity: effects of non-toxic doses ([6]; non-toxic doses): no evidence as to effects of non-toxic doses
- Toxicity: effects of toxic doses ([6]; toxic doses): death accompanied by trembling and clonic convulsions
- LD50 (LD50 in the rat; [8]): 360 mg/kg
- LD50 (LD50 in the rat; p.o. (oral route)): > 4000 mg/kg
- LD50 (LD50 in the mouse; [8]): 415 mg/kg
- LD50 (LD50 in the mouse; p.o. (oral route)): > 4000 mg/kg
